Measured values from PMC9738062, “Selectively Halogenated Flavonolignans—Preparation and Antibacterial Activity” (International Journal of Molecular Sciences, 2022).

Columns and labels:
[1] = DPPH radical scavenging; details: 1,1-diphenyl-2-picrylhydrazyl radical scavenging
Experimental: (§1) To further elucidate how halogenation affects other properties of the flavonoids studied, their 2,2′-azino-bis-(3-ethylbenzothiazoline-6-sulfonic acid) cation (ABTS) and 1,1-diphenyl-2-picrylhydrazyl (DPPH) radical scavenging, the Folin–Ciocalteu reagent (FCR) reducing, the ferric-reducing antioxidant power (FRAP), and the anti-lipoperoxidation activities were evaluated by in vitro methods (Supplementary Information Tables S1 and S2).
(§2) The antiradical activity was evaluated by the ability to scavenge ABTS and DPPH radicals. Reducing capacity was assessed by the ability to reduce the Folin–Ciocalteu reagent (FCR) and ferric ions (FRAP). The ability to inhibit lipid peroxidation of pooled male rat microsomal liver membranes induced by tert-butyl hydroperoxide was also evaluated and the results were expressed as IC50 values.

[2] = tested on: pooled male rat microsomal liver membranes; experiment: Inhibition of lipid peroxidation induced by tert-butyl hydroperoxide; assay type: biochemical; details: male rat microsomes, read-out: ILP IC50
Experimental: as §2

[3] = tested on: Vibrio campbellii BAA 1119 (AI-2); experiment: Viability of the quorum-sensing reporter culture (resazurin assay), AI-2 strain; assay type: cell-based; details: BAA1119, V. campbellii BAA 1119, resazurin assay, read-out: IC50 (concentration that halved the viability)
From the text: (§3) Commercially available strains of Vibrio campbellii were used to evaluate the ability of flavonoids and their derivatives to inhibit bacterial quorum sensing. V. campbellii uses two types of autoinducing molecules for its communication—N-acyl-homoserine lactones (Autoinducer I, AI-1, strain BAA 1118) and furanosyl borate diester (Autoinducer II, AI-2, strain BAA 1119). AI-1-based communication is mainly used by Gram-negative bacteria, while AI-2-based communication is found in both Gram-negative and Gram-positive bacteria. The mutant strains of V. campbellii BA1118 and BA1119 respond only to AI-1 or AI-2, respectively, and the response to the respective AI concentration is measured as luminescence. The higher the AI concentration, the higher the luminescence signal. The ability to inhibit the communication was expressed as the selectivity index (SI), calculated as the ratio between the concentration that halved the viability (IC50) and the concentration that halved the communication (EC50) of the respective V. campbellii strains. […] The antimicrobial activity of quorum-sensing inhibitors is undesirable because it creates a selection pressure and can lead to the development of resistance.
(§4) The inhibition of bacterial extracellular communication was measured using Vibrio campbellii strains BAA-1118 and BAA-1119. The experiment was performed according to the methods of Szemerédi et al.. Briefly, 5 × 10^5 CFU/mL (colony-forming units per milliliter) were seeded in an Autoinducer Bioassay medium (NaCl 17.5 g/L, MgSO4 12.3 g/L, Casamino acids 2 g/L, 10 mL of 1 M potassium phosphate pH 7.0, 10 mL of 0.1 M L-arginine, and 10 mL of glycerol in 970 mL of deionized water) in a 96-well plate. Immediately, the tested compounds were added at the final concentration of 0.2–200 µM and luminescence was recorded for 16 h by a SpectraMax i3x microplate reader set at 30 °C, an integration time of 10,000 ms, and shaking for 60 s before measurement. […] The selectivity index was calculated as the […]. The EC50 and IC50 were calculated using GraphPad Prism software version 5.00 for Windows with a nonlinear regression curve fit.

[4] = tested on: multidrug-resistant P. aeruginosa; experiment: Sensitization of antibiotic-resistant bacteria (compound plus breakpoint antibiotic concentration); assay type: cell-based, Pseudomonas aeruginosa; details: flavonoid 40 µM, 24 h; for Effect on viability in combination with colistin: colistin 2 mg/L; for Effect on viability in combination with imipenem: imipenem 4 mg/L; for Effect on viability in combination with imipenem: key: -: no effect (100% viability) was observed up to the highest flavonolignan concentration tested (>40 µM); reversion of resistance: the compound reversed the resistant phenotype to a sensitive one
Experimental: (§5) Clinically relevant antibiotics were selected for sensitization testing according to the European Committee on Antimicrobial Susceptibility Testing (EUCAST). Neither colistin and imipenem at breakpoint concentrations (according to EUCAST, […] and […]) affected the growth of the multidrug-resistant clinical strain of P. aeruginosa. Similarly, neither chloramphenicol and gentamicin at breakpoint concentrations ([…], respectively) affected the multidrug-resistant clinical strain of S. aureus. Flavonoids and their derivatives (1–40 µM) were used in combination therapy, along with the breakpoint concentration of antibiotics. After co-incubation, the minimum inhibitory concentration of flavonoids inhibiting the visible growth of bacteria was determined (Table 2).
(§6) Clinical isolates of P. aeruginosa and S. aureus were obtained from the General University Hospital in Prague (Prague, Czech Republic). P. aeruginosa was resistant to ciprofloxacin, oxacillin, ticarcillin, colistin, gentamicin, and imipenem. S. aureus was resistant to ciprofloxacin, gentamicin, erythromycin, chloramphenicol, clindamycin, oxacillin, cefotaxime, and vancomycin. Bacteria were cultivated in Mueller–Hinton broth (MH broth, Merck). The susceptibility of the bacteria was evaluated by the minimum inhibitory concentrations (MIC). The MIC of derivatives in the presence of the antibiotic cut-off concentration was determined according to ISO 20776-1: 2020. The antibiotic cut-off concentration was chosen according to the European Committee on Antimicrobial Susceptibility Testing (EUCAST, Clinical breakpoints—bacteria (ver. 11.0), 1 January 2021). The 40 µM concentration of the derivatives was chosen as the highest concentration for the tests. Cell viability was determined by measuring absorbance (A590 nm) after 24 h incubation at 37 °C, 150 rpm.

[5] = tested on: doxorubicin-resistant human ovarian carcinoma (HOC/DOX); experiment: Cytotoxicity (resazurin assay, 72 h); assay type: cell-based; details: for IC50: Homo sapiens, 72 h, resazurin assay; for SI (selectivity index): ratio IC50 for HDF / IC50 for HOC/DOX
Experimental: (§7) The cytotoxicity of flavonoids and their halogenated derivatives was determined as their ability to decrease the viability of human dermal fibroblasts (HDF) and doxorubicin-resistant human ovarian carcinomas (HOC/DOX). Both cell lines were cultivated in Dulbecco’s Modified Eagle’s Medium supplemented with fetal bovine serum (FBS, 10% v/v) and 1 × antibiotic antimycotic solution and incubated at 37 °C in the atmosphere of 5% CO2. The experiment was performed according to a previously published method. Briefly, 1 × 10^5 cells/mL were seeded into a 96-well plate (100 µL/well). After 24 h, flavonoids and their derivatives were administered at the concentration range of 31.25–500 µM. After 72 h, the viability was determined by resazurin assay (0.03 mg/mL of resazurin in PBS), where the fluorescence was measured after 2 h of incubation by the SpectraMax i3x microplate reader at a wavelength of 560/590 nm (excitation/emission). The concentration inhibiting half of the population (IC50) was determined using nonlinear regression in GraphPad Prism software. The selectivity index was calculated as the ratio between the IC50 for HDF (control, non-cancerous cells) and the IC50 for HOC/DOX (cancer cells).

[6] = tested on: human dermal fibroblasts (HDF); experiment: Cytotoxicity (resazurin assay, 72 h); assay type: cell-based; details: Fibroblast
Experimental: as §7

[7] = tested on: Vibrio campbellii BAA 1118 (AI-1); experiment: microbe, parasite or virus in culture; assay type: cell-based; details: for EC50: Vibrio campbellii, BAA1118, 16 h, read-out: EC50 (concentration that halved the communication)
From the text: as §3, §4

[8] = tested on: Vibrio campbellii BAA 1119 (AI-2); experiment: microbe, parasite or virus in culture; assay type: cell-based; details: for EC50: Vibrio campbellii, BAA1119, 16 h, read-out: EC50 (concentration that halved the communication); for SI (selectivity index): ratio IC50 (viability) / EC50 (communication), BAA 1119
From the text: as §3, §4

[9] = tested on: lipopolysaccharide-stimulated macrophages (RAW 264.7); experiment: Inhibition of nitric oxide production (Griess reagent); assay type: cell-based, murine; details: Mus musculus, RAW264.7; LPS 100 ng/mL, 24 h; highest tested concentration 100 µM; read-out: NO Production IC50
Experimental: The anti-inflammatory activity of the tested flavonolignans was determined as the ability to reduce nitric oxide production by murine macrophages (RAW 264.7) stimulated by bacterial lipopolysaccharides, as previously described. […] For the experiment, 1 × 10^6 cells/mL was seeded into the 96-well plate (100 µL/well). […] After 24 h, the medium was mixed with Griess reagent (0.04 g/mL), prepared freshly in deionized water at the ratio of 1:1. The absorbance was measured after 15 min at 540 nm by the SpectraMax i3x microplate reader. Cell viability was determined by resazurin assay.

[10] = ABTS cation radical scavenging; details: vitamin C equivalent antioxidant capacity
Experimental: as §1, §2

[11] = Folin-Ciocalteu reagent reduction; details: gallic acid equivalents
Experimental: as §1, §2

[12] = tested on: Vibrio campbellii BAA 1118 (AI-1); experiment: Viability of the quorum-sensing reporter culture (resazurin assay), AI-1 strain; assay type: cell-based; details: BAA1118, V. campbellii BAA 1118, resazurin assay, read-out: IC50 (concentration that halved the viability)
From the text: as §3, §4

[13] = tested on: multidrug-resistant S. aureus; experiment: Sensitization of antibiotic-resistant bacteria (compound plus breakpoint antibiotic concentration); assay type: cell-based, Staphylococcus aureus; details: flavonoid 40 µM, 24 h; for Effect on viability in combination with chloramphenicol: chloramphenicol 8 mg/L
Experimental: as §5, §6

[14] = Ferric reducing antioxidant power (FRAP); details: Fe2+ equivalents
Experimental: as §1, §2

[15] = tested on: S. aureus biofilm formation; parameters: method as in PMID 28365326; details: cited from earlier work
[16] = tested on: breast cancer cell lines; parameters: method as in PMID 23962161; details: cited from earlier work

Row | Molecule | IC50 [1] | IC50 [2] | IC50 [3] | Effect on viability in combination with imipenem [4] | IC50 [5] | SI (selectivity index) [5] | IC50 [6] | EC50 [7] | EC50 [8] | IC50 [9] | ABTS [CEAC] [10] | FCR [GAE] [11] | IC50 [12] | Effect on viability in combination with chloramphenicol [13] | FRAP [Fe2+eq] [14] | Concentration inhibiting S. aureus biofilm formation [15] | other results
1 | Cc1c(C)c2c(c(C)c1O)CCC(C)(C(=O)O)O2 (stereo not shown) [Trolox, reference compound] | 3.5 µM | 32.7 ± 2.4 µM |  |  |  |  |  |  |  |  |  |  |  |  |  |  | 
2 | COc1cc([C@@H]2Oc3c(O)cc([C@H]4Oc5c(Br)c(O)c(Br)c(O)c5C(=O)[C@@H]4O)cc3[C@H]2CO)ccc1O [compound 15, 6,8-Dibromosilychristin A] | 106 µM | 459 µM | > 200 µM | - | 249 µM | 0.71 | 176 µM | > 200 µM | > 200 µM | > 100 µM | 1.28 ± 0.02 CEAC | 2.03 ± 0.05 GAE | > 200 µM | - | 0.34 ± 0.03 Fe2+eq |  | Effect on viability in combination with colistin [4]: -
3 | COc1cc(C2Oc3cc(-c4oc5c(Br)c(O)c(Br)c(O)c5c(=O)c4O)ccc3OC2CO)ccc1O (stereo not shown) [compound 17, 6,8-dibromo-2,3-dehydrosilybin AB] | 11.7 µM | 56.7 ± 1.6 µM | 127 ± 7.4 µM | - | 91.3 ± 1.6 µM | 0.46 | 41.7 ± 1 µM | 55.5 ± 1.6 µM | 4.1 ± 0.2 µM | 44.4 ± 2.4 µM | 1.49 ± 0.04 CEAC | 1.50 ± 0.02 GAE | > 200 µM | - | 0.54 ± 0.04 Fe2+eq |  | SI (selectivity index) [8]: 31.2 ± 3.5; Effect on viability in combination with gentamicin ([13]; gentamicin 1 mg/L): -
4 | COc1cc([C@@H]2Oc3c(O)cc([C@H]4Oc5c(I)c(O)c(I)c(O)c5C(=O)[C@@H]4O)cc3[C@H]2CO)ccc1O [compound 27, 6,8-diiodosilychristin A] | 168 µM | 97.2 ± 3.5 µM |  |  |  |  |  |  |  |  | 1.13 ± 0.01 CEAC | 1.79 ± 0.05 GAE |  |  | 0.21 ± 0.01 Fe2+eq |  | 
5 | COc1cc([C@@H]2Oc3cc([C@H]4Oc5cc(O)c(Cl)c(O)c5C(=O)[C@@H]4O)ccc3O[C@H]2CO)ccc1O [compound 28, 6-Chlorosilybin B] | > 500 µM |  | > 200 µM | - | 272 µM | 0.54 | 147 µM | 114 ± 5 µM | 3.2 ± 0.2 µM | 52.4 ± 4.5 µM | 0.71 ± 0.02 CEAC | 1.25 ± 0.01 GAE | 130 ± 5.9 µM | - | 0.050 ± 0.002 Fe2+eq |  | Effect on viability in combination with colistin [4]: -; SI (selectivity index) ([7]; ratio IC50 (viability) / EC50 (communication), BAA 1118): 1.1 ± 0.1; SI (selectivity index) [8]: ≥62.6 ± 3.6
6 | COc1ccc([C@@H]2CC(=O)c3c(O)cc(O)cc3O2)cc1O [hesperetin] |  |  |  |  |  |  |  |  |  |  |  |  |  |  |  | ≤ 4 µM | 
7 | O=c1c(O)c(-c2cc(O)c(O)c(O)c2)oc2cc(O)cc(O)c12 [myricetin] |  |  |  |  |  |  |  |  |  |  |  |  |  |  |  | ≤ 4 µM | 
8 | O=C(CCc1ccc(O)cc1)c1c(O)cc(O)cc1O [phloretin] |  |  |  |  |  |  |  |  |  |  |  |  |  |  |  | ≤ 4 µM | 
9 | prulonide A |  |  |  |  |  |  |  |  |  |  |  |  |  |  |  |  | Concentration showing cytotoxicity [16]: 1 µM
